Measured values: patent US11447471B2, “α,β-unsaturated amide compound” (KYOWA KIRIN CO., LTD., priority 2017, dated 2022)

How the values were obtained:
Format in all cases: cell-based
NCI-H226 cells = test: Cell growth inhibitory effect on human mesothelioma cell line (cell counting kit 8, 6 days); conditions: NCI-H226, 144 h
Summary of the method: (§1)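 Cells in RPMI1640 with 10% FBS plated at 500 cells/well (OVTOKO 250/well) and cultured one day at 37° C, 5% CO2. Serially diluted compound added (final DMSO 0.1%) for 6 days; viable cells measured at addition and day 6 with CCK-8, absorbance 450 nm. GI50 derived from growth inhibition rate.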

NCI-H322 cells = test: Cell growth inhibitory effect on human lung cancer cell line (cell counting kit 8, 6 days); conditions: 144 h; human lung cancer cell line NCI-H322, 6 days incubation
Summary of the method: as §1

OVTOKO cells = test: Cell growth inhibitory effect on human ovarian cancer cell line (cell counting kit 8, 6 days); conditions: 144 h, 6 days incubation
Summary of the method: as §1

HuH28 cells = test: Cell growth inhibitory effect on human liver cancer cell line (cell counting kit 8, 6 days); conditions: 144 h; human liver cancer cell line HuH28, 6 days incubation
Excerpt: NCI-H226 cells, a human mesothelioma cell line (ATCC, CRL-5826), NCI-H322 cells, a human lung cancer cell line (the European Collection of Authenticated Cell Cultures, 95111734), OUTOKO cells, a human ovarian cancer cell line (JCRB cell bank, KRB1048) and […] were each subcultured by keeping the cell density under 80% in a RPMI1640 culture medium with 10% fetal bovine serum (FBS). NCI-H226 cells, NCI-H322 cells and SSP-25 cells were each suspended in the RPMI1640 culture medium mentioned above, and plated to a 96-well flat-bottom plate at 500 cells/well in each well, and incubated at 37° C. in an incubator with 5% CO2 for one day. After the incubation, the evaluation of cell growth inhibitory activity was started. OVTOKO cells were suspended in the RPMI1640 culture medium mentioned above, and plated to a 96-well flat-bottom plate at 250 cells/well in each well, and incubated it at 37° C. in an incubator with 5% CO2 for one day. After the incubation, the evaluation of the cell growth inhibitory activity was started. The next day, a test compound was serially diluted to 5 times of its final concentration in the RPM11640 culture medium mentioned above, and the diluted solution was added to each well. In this case, the final concentration of DMSO in each well was adjusted to 0.1%. After the test compound was added, cells were incubated at 37° C. in an incubator with 5% CO2 for 6 days. At the addition of the test compound and 6 days after the addition, the cell counting measurement was performed using a cell counting kit 8 (made by DOJINDO) according to a protocol equivalent to DOJINDO's recommendation. A reagent contained in the kit was added to each plate and color reaction was performed for 2 or 3 hours at 37° C. in an incubator with 5% CO2. After the reaction, an absorbance at wavelength of 450 nm was measured using a microplate reader. A growth inhibition rate was calculated according to the following formula, from which the concentration of a test compound at which cell growth was inhibited by 50% (GI50 value) was determined.

SMILES	GI50 (NCI-H226 cells) [nM]	GI50 (NCI-H322 cells) [nM]	GI50 (OVTOKO cells) [nM]	GI50 (HuH28 cells) [nM]
C=CC(=O)NCc1ccc(Oc2ccc(C(F)(F)F)nc2)c2nc(C)oc12 [Compound 249, N-{(2-Methyl-4-[{6-(trifluoromethyl)pyridin-3-yl}oxy]benzo[d]oxazol-7-yl)methyl}acrylamide]	< 100	< 1000	≤ 3000	< 3000
C=CC(=O)NCc1ccc(Oc2ccc(C(F)(F)F)c(F)c2)c2nc(C)oc12 [Compound 277, N-([4-{3-Fluoro-4-(trifluoromethyl)phenoxy}-2-methylbenzo[d]oxazol-7-yl]methyl)acrylamide]	< 100	< 1000	≤ 3000	< 3000
C=CC(=O)NCc1ccc(Oc2ccc(C(F)(F)F)cn2)c2sc(C)nc12 [Compound 288, N-{(2-Methyl-7-[{5-(trifluoromethyl)pyridin-2-yl}oxy]benzo[d]thiazol-4-yl)methyl}acrylamide]	< 100	< 1000	≤ 3000	< 3000
C=CC(=O)NCc1ccc(Nc2ccc(C(F)(F)F)cc2)c2nc(C)oc12 [Compound 270, N-{(2-Methyl-4-[{4-(trifluoromethyl)phenyl}amino]benzo[d]oxazol-7-yl)methyl}acrylamide]	< 100	< 1000	≤ 3000	< 3000
C=CC(=O)Nc1cncc(OCC2CCC(F)(F)CC2)c1 [Compound 192]	100 to 1000	< 1000	≤ 3000	< 3000
C=CC(=O)NCc1ccc(Oc2cccc(C(F)(F)F)c2)c2nc(C)oc12 [Compound 279, N-([2-Methyl-4-{3-(trifluoromethyl)phenoxy}benzo[d]oxazol-7-yl]methyl) acrylamide]	< 100	< 1000	≤ 3000	< 3000
C=CC(=O)NCc1ccc(Oc2ccc(C(F)(F)F)cn2)c2oc(C)nc12 [Compound 284, N-{(2-Methyl-7-[{5-(trifluoromethyl)pyridin-2-yl}oxy]benzo[d]oxazol-4-yl)methyl}acrylamide]	< 100	< 1000	≤ 3000	< 3000
C=CC(=O)NCc1ccc(Oc2ccc(C(F)(F)F)cn2)c2nc(C)oc12 [Compound 250, N-{(2-Methyl-4-[{5-(trifluoromethyl)pyridin-2-yl}oxy]benzo[d]oxazol-7-yl)methyl}acrylamide]	< 100	< 1000	≤ 3000	< 3000
